Data published in patent US20200216432A1, “SULFONAMIDE DERIVATIVES AS STAT3 INHIBITORS FOR THE TREATMENT OF PROLIFERATIVE DISEASES” (King's College London, priority 2017, published 2020).
Square brackets hold non-standard residues; d marks the D form. Peptide text beside a SMILES is read from it. pY = N[C@@H](Cc1ccc(OP(=O)(O)O)cc1)C(=O)O

Assays:
[1] = biological target: unphosphorylated STAT3 monomer (uSTAT3) SH2 domain (Homo sapiens, UniProt P40763); assay: Fluorescence polarisation assay for the inhibition of STAT3 dimerisation; type: binding; details: 350 nM uSTAT3, 10 nM FAM-pYLPQTV, 100 μM ligand; average of triplicate
Description: Fluorescence Polarisation Assay for the Inhibition of STAT3 Dimerisation
The compounds were subjected to an in vitro fluorescent polarisation (FP)-based primary PPI binding screen to assess their ability to inhibit STAT3 dimerisation by interacting with the SH2 domain. In this FP assay, the unphosphorylated STAT3 monomer (uSTAT3) and a surrogate peptide FAM-pYLPQTV were used to form a ‘pseudo-dimer’. The assay is based on the concept that the compounds were expected to displace the surrogate peptide from the uSTAT3 resulting in a fluorescent read out.
Specifically, for the FP assay, a black (CORNING™) 96 well plate was thoroughly washed with distilled water and allowed to dry. A 100 nM FAM-pYLPQTV working solution was prepared from 10 μM FAM-pYLPQTV stock solution (in DMSO) using PBS pH 7.4 Buffer. 10 μl FAM-pYLPQTV was added to 350 nM uSTAT3 protein, the final concentration of protein in each well, in 90 μl PBS buffer pH 7.4. The MP value of the surrogate dimer complex was measured using a fluorescent plate reader (Envision™, Perkin Elmer™, USA), which provided the base MP value. The inhibitor solution was then added to the well and the assay plate was placed on a shaker for 5 minutes. The MP value for each well was then measured again. A shift in fluorescent values was observed due to displacement of the fluorescently-labelled surrogate peptide by the inhibitors, and the average inhibition for each inhibitor could be calculated as described below:
Base MP value (X) for each well=MP value of Protein and Probe (350 nm STAT3+10 nM FAM-pYLPQTV)−MP value of free FAM-pYLPQTV
Inhibitor MP value (Y) for each well=MP value of Protein+Probe+Inhibitor (350 nm uSTAT3+10 nM FAM-pYLPQTV+2 μL Inhibitor)−MP value of free FAM-pYLPQTV with 2 μL DMSO
% inhibition by any ligand/peptide=(X−Y)/X*100
For comparison purpose, the % inhibition produced by 100 μM pYLKTKF was considered to be 100%, and the inhibition produced by different ligands was reported as relative to 100 μM pYLKTKF.
% Inhibition produced by 100 μM pYLKTKF=A
% Inhibition produced by 100 μM Ligand=B
Relative inhibition (%)=B/A*100
The experiment was carried out in triplicate, and average values were taken as the measure of PPI inhibition.

[2] = tested on: MDA-MB-231 breast (STAT3-dependent) cancer cell line; assay: MTT cell viability assay, MDA-MB-231; type: cell-based, human; details: for IC50: Homo sapiens, MDA-MB-231, 48 h, MTT, 48 hours exposure (table title); for Selectivity ratio: STAT3-null A4 versus STAT3-dependent MDA-MB-231
Description: (§1) MTT Cell viability assay with both MDA-MB-231 breast (STAT3-dependent) and A4 (STAT3-null) cancer cell lines.
(§2) After observing significant STAT3 dimerisation inhibitory activity in the preliminary FP assay, the target ligand and related fragments were progressed to an MTT cytotoxicity assay to evaluate in a STAT3-dependent tumour cell line (MDA MB 231, breast cancer) and a STAT3 null A4 cell line. It was anticipated that the compounds would show selective toxicity towards the STAT3-dependent MDA MB 231 cell line and would have lost activity in the STAT3 null A4 cell line if the mechanism of action was STAT3-mediated.
(§3) For each cell line, a total of 10,000 cells were seeded for 24 hours before addition of the inhibitors. The cells were grown in normal cell culture conditions at 37° C. under a 5% CO2 humidified atmosphere using an appropriate medium. The cell count was adjusted to 10^5 cells/ml, and 5,000-20,000 cells were added per well depending on the cell line. The cells were then incubated for 24 hours, and 1 μl aliquots of the inhibitors were added to the wells in triplicate. […] Absorbance was quantified by spectrophotometry at A=570 nm (Envision™ Plate Reader, PerkinElmer™, USA). IC50 values were calculated by a dose-response analysis using the Prism GraphPad Prism® software package.

[3] = tested on: A4 (STAT3-null) cancer cell line; assay: MTT cell viability assay, A4; type: cell-based; details: exposure (table title)
Description: as §1, §2, §3

Sequence of unphosphorylated STAT3 monomer (uSTAT3) SH2 domain (P40763 whole entry, the tested form may be a part): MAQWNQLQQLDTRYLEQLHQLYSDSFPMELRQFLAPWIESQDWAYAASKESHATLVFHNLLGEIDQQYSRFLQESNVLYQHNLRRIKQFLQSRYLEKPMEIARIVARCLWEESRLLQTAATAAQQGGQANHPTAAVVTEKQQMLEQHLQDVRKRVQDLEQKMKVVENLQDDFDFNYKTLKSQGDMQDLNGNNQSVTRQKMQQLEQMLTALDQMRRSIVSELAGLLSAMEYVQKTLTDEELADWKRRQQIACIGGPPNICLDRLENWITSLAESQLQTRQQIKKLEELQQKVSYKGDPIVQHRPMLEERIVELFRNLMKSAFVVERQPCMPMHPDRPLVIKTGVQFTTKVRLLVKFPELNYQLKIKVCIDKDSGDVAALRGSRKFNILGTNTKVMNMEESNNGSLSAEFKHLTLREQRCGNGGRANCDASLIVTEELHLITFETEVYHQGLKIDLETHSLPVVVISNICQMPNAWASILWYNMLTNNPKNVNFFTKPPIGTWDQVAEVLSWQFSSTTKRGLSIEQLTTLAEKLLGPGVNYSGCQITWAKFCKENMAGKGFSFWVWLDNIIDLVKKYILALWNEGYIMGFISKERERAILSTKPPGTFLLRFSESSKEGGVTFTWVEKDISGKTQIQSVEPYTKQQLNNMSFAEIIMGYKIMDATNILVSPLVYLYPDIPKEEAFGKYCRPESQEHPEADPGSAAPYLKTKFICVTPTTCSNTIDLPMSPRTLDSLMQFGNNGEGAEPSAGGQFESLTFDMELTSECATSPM

Structure (SMILES): COC(=O)c1ccc(N(C)S(=O)(=O)c2cc(C(=O)NCc3ccc(CN4CCCCC4)cc3)sc2-c2ccc(N3CCOCC3)cc2)cc1 [Compound 1, methyl 4-((N-methyl-2-(4-morpholinophenyl)-5-((4-(piperidin-1-ylmethyl)benzyl)carbamoyl)thiophene)-3-sulfonamido)benzoate]
- inhibition at 100 µM [1]: 59.4%
- IC50 [2]: 2.68 µM
- Selectivity ratio [2]: 28.13
- IC50 [3]: 75.4 µM

Structure (SMILES): COC(=O)c1ccc(N(C)S(=O)(=O)c2cc(C(=O)NCc3ccc(CN4CCCCC4)cc3)sc2-c2ccc(N3CCCCC3)cc2)cc1 [Compound 2, methyl 4-((N-methyl-2-(4-(piperidin-1-yl)phenyl)-5-((4-(piperidin-1-ylmethyl)benzyl)carbamoyl)thiophene)-3-sulfonamido)benzoate]
- inhibition at 100 µM [1]: 51.2%
- IC50 [2]: 2.12 µM
- Selectivity ratio [2]: 39.76
- IC50 [3]: 84.3 µM

Structure (SMILES): COC(=O)c1ccc(N(C)S(=O)(=O)c2cc(C(=O)NCc3ccc(CN4CCCCC4)cc3)sc2-c2ccnc(N3CCN(C)CC3)c2)cc1 [Compound 5, methyl 4-((N-methyl-2-(2-(4-methylpiperazin-1-yl)pyridin-4-yl)-5-((4-(piperidin-1-ylmethyl)benzyl)carbamoyl)thiophene)-3-sulfonamido)benzoate]
- inhibition at 100 µM [1]: 46.9%
- IC50 [2]: 2.43 µM
- Selectivity ratio [2]: 23.62
- IC50 [3]: 57.4 µM

Structure (SMILES): COC(=O)c1ccc(N(C)S(=O)(=O)c2cc(C(=O)NCc3ccc(CN4CCCCC4)cc3)sc2-c2ccc(C(=O)N3CCN(C)CC3)cc2)cc1 [Compound 7, methyl 4-((N-methyl-2-(4-(4-methylpiperazine-1-carbonyl)phenyl)-5-((4-(piperidin-1-ylmethyl)benzyl)carbamoyl)thiophene)-3-sulfonamido)benzoate]
- inhibition at 100 µM [1]: 40.6%
- IC50 [2]: 6.5 µM
- Selectivity ratio [2]: 10.01
- IC50 [3]: 65.1 µM

Structure (SMILES): COC(=O)c1ccc(N(C)S(=O)(=O)c2cc(C(=O)NCc3ccc(CN4CCCCC4)cc3)sc2-c2ccc(C#N)cc2)cc1 [Compound 8, methyl 4-((2-(4-cyanophenyl)-N-methyl-5-((4-(piperidin-1-ylmethyl)benzyl)carbamoyl)thiophene)-3-sulfonamido)benzoate]
- inhibition at 100 µM [1]: 36.4%
- IC50 [2]: 12.4 µM
- Selectivity ratio [2]: 2.76
- IC50 [3]: 34.3 µM

Structure (SMILES): COC(=O)c1ccc(N(C)S(=O)(=O)c2cc(C(=O)Nc3ccc(OCCN4CCOCC4)cc3)sc2-c2ccc(N3CCOCC3)cc2)cc1 [Compound 9, methyl 4-((N-methyl-5-((4-(2-morpholinoethoxy)phenyl)carbamoyl)-2-(4-morpholinophenyl)thiophene)-3-sulfonamido)benzoate]
- inhibition at 100 µM [1]: 54.1%
- IC50 [2]: 2.88 µM
- Selectivity ratio [2]: 31.21
- IC50 [3]: 89.9 µM

Structure (SMILES): COC(=O)c1ccc(N(C)S(=O)(=O)c2cc(C(=O)Nc3ccc(OCCN4CCOCC4)cc3)sc2-c2ccc(N3CCN(C)CC3)nc2)cc1 [Compound 11, methyl 4-((N-methyl-2-(6-(4-methylpiperazin-1-yl)pyridin-3-yl)-5-((4-(2-morpholinoethoxy)phenyl)carbamoyl)thiophene)-3-sulfonamido)benzoate]
- inhibition at 100 µM [1]: 58.3%
- IC50 [2]: 7.51 µM
- Selectivity ratio [2]: 8.84
- IC50 [3]: 66.4 µM

Structure (SMILES): COC(=O)c1ccc(N(C)S(=O)(=O)c2cc(C(=O)Nc3ccc(OCCN4CCOCC4)cc3)sc2-c2ccc(C(=O)N3CCOCC3)cc2)cc1 [Compound 12, methyl 4-((N-methyl-2-(4-(morpholine-4-carbonyl)phenyl)-5-((4-(2-morpholinoethoxy)phenyl)carbamoyl)thiophene)-3-sulfonamido)benzoate]
- inhibition at 100 µM [1]: 59.4%
- IC50 [2]: 3.91 µM
- Selectivity ratio [2]: 19.28
- IC50 [3]: 75.4 µM

Structure (SMILES): COC(=O)c1ccc(N(C)S(=O)(=O)c2cc(C(=O)Nc3ccc(OCCN4CCOCC4)cc3)sc2-c2ccnc(N3CCN(C)CC3)c2)cc1 [Compound 13, methyl 4-((N-methyl-2-(2-(4-methylpiperazin-1-yl)pyridin-4-yl)-5-((4-(2-morpholinoethoxy)phenyl)carbamoyl)thiophene)-3-sulfonamido)benzoate]
- inhibition at 100 µM [1]: 56.2%
- IC50 [2]: 1.86 µM
- Selectivity ratio [2]: 40.01
- IC50 [3]: 74.7 µM

Structure (SMILES): COC(=O)c1ccc(N(C)S(=O)(=O)c2cc(C(=O)Nc3ccc(OCCN4CCOCC4)cc3)sc2-c2ccnc(N3CCNCC3)c2)cc1 [Compound 14, methyl 4-((N-methyl-5-((4-(2-morpholinoethoxy)phenyl)carbamoyl)-2-(2-(piperazin-1-yl)pyridin-4-yl)thiophene)-3-sulfonamido)benzoate]
- inhibition at 100 µM [1]: 33.3%
- IC50 [2]: 14.5 µM
- Selectivity ratio [2]: 5.40
- IC50 [3]: 78.4 µM

Structure (SMILES): COC(=O)c1ccc(N(C)S(=O)(=O)c2cc(C(=O)Nc3ccc(OCCN4CCOCC4)cc3)sc2-c2ccc(C(=O)N3CCN(C)CC3)cc2)cc1 [Compound 15, methyl 4-((N-methyl-2-(4-(4-methylpiperazine-1-carbonyl)phenyl)-5-((4-(2-morpholinoethoxy)phenyl)carbamoyl)thiophene)-3-sulfonamido)benzoate]
- inhibition at 100 µM [1]: 40.6%
- IC50 [2]: 10.1 µM
- Selectivity ratio [2]: 8.45
- IC50 [3]: 84.5 µM

Structure (SMILES): COC(=O)c1ccc(N(C)S(=O)(=O)c2cc(C(=O)Nc3ccc(OCCN4CCOCC4)cc3)sc2-c2ccc(C#N)cc2)cc1 [Compound 16, methyl 4-((2-(4-cyanophenyl)-N-methyl-5-((4-(2-morpholinoethoxy)phenyl)carbamoyl)thiophene)-3-sulfonamido)benzoate]
- inhibition at 100 µM [1]: 47.9%
- IC50 [2]: 1.1 µM
- Selectivity ratio [2]: 32.36
- IC50 [3]: 35.6 µM

Structure (SMILES): COC(=O)c1ccc(N(C)S(=O)(=O)c2cc(C(=O)NCc3ccc(N4CCN(C)CC4)cc3)sc2-c2ccc(N3CCCCC3)cc2)cc1 [Compound 17, methyl 4-((N-methyl-5-((4-(4-methylpiperazin-1-yl)benzyl)carbamoyl)-2-(4-(piperidin-1-yl)phenyl)thiophene)-3-sulfonamido)benzoate]
- inhibition at 100 µM [1]: 43.7%
- IC50 [2]: 4.7 µM
- Selectivity ratio [2]: 13.68
- IC50 [3]: 64.3 µM

Structure (SMILES): COC(=O)c1ccc(N(C)S(=O)(=O)c2cc(C(=O)Nc3ccc(N4CCCCC4)cc3)sc2-c2ccc(N3CCCCC3)cc2)cc1 [Compound 18, methyl 4-((N-methyl-2-(4-(piperidin-1-yl)phenyl)-5-((4-(piperidin-1-yl)phenyl)carbamoyl)thiophene)-3-sulfonamido)benzoate]
- inhibition at 100 µM [1]: 45.8%
- IC50 [2]: 3.5 µM
- Selectivity ratio [2]: 12.94
- IC50 [3]: 45.3 µM

Structure (SMILES): COC(=O)c1ccc(N(C)S(=O)(=O)c2cc(C(=O)Nc3ccc4c(ccn4Cc4ccccc4)c3)sc2Br)cc1 [Compound 40, methyl 4-((5-((1-benzyl-1H-indo1-5-yl)carbamoyl)-2-bromo-N-methylthiophene)-3-sulfonamido)benzoate]
- inhibition at 100 µM [1]: 47.1%

Structure (SMILES): CC(C)C[C@H](NC(=O)[C@@H](N)Cc1ccc(OP(=O)(O)O)cc1)C(=O)N[C@@H](CCCCN)C(=O)N[C@H](C(=O)N[C@@H](CCCCN)C(=O)N[C@@H](Cc1ccccc1)C(=O)O)[C@@H](C)O [pYLKTKF, reference compound] (H-[pY]LKTKF-OH)
- inhibition at 100 µM [1]: 41.6%
- cytotoxicity in the MTT assay ([2]; highest concentration (100 μM) evaluated): did not show any cytotoxicity
